Laboratory results reported in patent US11446365B2, “Antimalarial enzyme conjugates, kits containing same, and methods of producing and using same” (priority 2017, dated 2022).

Tested on: P. yoelii parasites in erythrocytes
Experiment: Selenomethionine prodrug, 24 hour culture of parasitized blood, damaged parasites by flow cytometry
Type: cell-based
Experimental: Blood was harvested and pooled from three mice infected with the murine Plasmodium parasite P. yoelii. Pooled blood parasitemia was 4.0%. Erythrocytes were extracted from the blood and washed to remove debris. The cells were then incubated with excess mCGL-AV for 3 hours. After incubation, the cells were then washed to remove excess protein and debris. Samples were then incubated under an oxygen reduced atmosphere mimicking the conditions of blood within the body for 24 hours with varying concentrations of selenomethionine. Damaged parasites were enumerated via flow cytometry. The number of damaged parasites is expressed as a percentage of the total number of parasites. Error bars represent the standard error of n=3 repeats of the assay for the same pooled blood.
To insure that healthy red blood cells were not damaged by such high concentrations of mCGL-AV, samples of treated and untreated blood were imaged using light microscopy to search for signs of hemolysis.

Structure (SMILES): C[Se]CC[C@H](N)C(=O)O [selenomethionine]
- impact on parasite viability, selenomethionine by itself (24 hours of culture, varying concentrations of selenomethionine, no fusion protein): no significant impact on parasite viability
- damaged parasites with selenomethionine plus mCGL-AV (excess mCGL-AV 3 hours, wash, then 24 hours with varying concentrations of selenomethionine): boosted the cytotoxicity of the fusion protein
